# Columns and labels:
# [1] = Annealing/DSC method for solubility of a crystalline substance in a polymer; assay type: physicochemical; conditions: 40 and 50% w/w IMC in PVP/VA, annealing vs scanning method
# Description: Solute-polymer mixtures of desired concentrations were prepared by weighing the components. […] In a typical procedure, 0.5-1 g solute/polymer powder was milled at 10 Hz. Each cycle of milling was 2 min, followed by a 2 min cool-down. The cycle was repeated to achieve a desired milling time (2-60 min).
# For annealing, 5-10 mg of sample was packed into a Tzero hermetic aluminum pan with three pin holes made in the lid to allow the escape of moisture and held isothermally at a desired temperature for as long as 600 minutes. Shorter annealing time was used if the system could apparently achieve equilibrium sooner.
# Differential scanning calorimetry (DSC) was conducted using a TA Instruments DSC Q2000 at 10° C./min to determine whether residual crystals remain after annealing, i.e. whether a dissolution endotherm can be identified.
# [2] = polymer PVP K-12; cited from earlier work
# [3] = Flory-Huggins fit of solute activity from annealing-method solubility data (interaction parameter χ); assay type: physicochemical; conditions: polymer PVP K-12, Flory-Huggins fit
# Description: The solute activity a1 of the drug in the saturated solution was calculated from the solubility of the crystalline drug in the polymer as follows:
# In a1=(ΔHm/R)(1/Tm−1/T) (1)
# where Tm is the melting point of the pure drug, ΔHm is its molar heat of melting, and T is the temperature at which the drug's solubility is measured (or its depressed melting point). […] According to the Flory-Huggins theory, the solute activity is given by
# where v1 and v2 are the solute (drug) and solvent (polymer) volume fractions (v1+v2=1), x is the molar volume ratio of the polymer and the drug, and χ□ is the solute-solvent interaction parameter.
# To the extent the reasonable fitting in FIG. 4 justifies the use of the Flory-Huggins model, the interaction parameter χ (equation 1) could be obtained.
compound,measurement,setting,value
"COc1ccc2c(c1)c(CC(=O)O)c(C)n2C(=O)c1ccc(Cl)cc1 [IMC, indomethacin]",solution temperature below that obtained with the scanning method,[1],approximately 7 °C
same,solute-solvent interaction parameter χ as determined by Marsac et al.,[2],−0.82
same,solute-solvent interaction parameter χ as determined with the method of the present invention,[3],−8.2 ± 0.6

# Reference: patent US20130199313A1, “METHOD FOR EVALUATING THE SOLUBILITY OF A CRYSTALLINE SUBSTANCE IN A POLYMER” (Abbott GmbH & Co, KGW, priority 2010, published 2013)
